Data on one compound can be found in patent US20260315468A1, “PHARMACEUTICAL COMPOSITION AND USE THEREOF” (SHANGHAI ALLIST PHARMACEUTICAL CO., LTD., priority 2022, published 2026).

As usually defined, the IC50 is the concentration at which inhibition is half-maximal. A high value points to weaker potency.

Data set [1] deals with Ba/F3 EGFR-Del19/G724S. The data set is described as follows: Anti-proliferation, CellTiter-Glo Luminescent Cell Viability Assay. It is filed as cell-based. The settings on record: Mus musculus, BaF3, 72 h, 3 days. From the text: (§1) The objective of the test example 1 was to evaluate the anti-proliferation effect of Furmonertinib mesilate on 18 cell lines (Ba/F3 EGFR-G719S, Ba/F3 EGFR-S768I, Ba/F3 EGFR-G724S, Ba/F3 EGFR-L718Q, Ba/F3 EGFR-Del19/G724S, Ba/F3 EGFR-E709H, Ba/F3 EGFR-L747S, Ba/F3 EGFR-E709V, Ba/F3 EGFR-L747V, Ba/F3 EGFR-E709-710>D, Ba/F3 EGFR-E709A, Ba/F3 EGFR-Del19/C797S, Ba/F3 EGFR-L858R/C797S, Ba/F3 EGFR-L747S/G719A, Ba/F3-EGFR-L858R-L718V, Ba/F3-EGFR-L858R-L718Q, Ba/F3-EGFR-E709K-G719A, and Ba/F3 EGFR-L861Q) using standard CellTiter-Glo® Luminescent Cell Viability Assay. Further, AZD9291 was used as control compound.
(§2) Cell culture: Ba/F3 EGFR-G719S, Ba/F3 EGFR-S768I, Ba/F3 EGFR-G724S, Ba/F3 EGFR-L718Q, Ba/F3 EGFR-Del19/G724S, Ba/F3 EGFR-E709H, Ba/F3 EGFR-L747S, Ba/F3 EGFR-E709V, Ba/F3 EGFR-L747V, Ba/F3 EGFR-E709-710>D, Ba/F3 EGFR-E709A, Ba/F3 EGFR-Del19/C797S, Ba/F3 EGFR-L858R/C797S, Ba/F3 EGFR-L747S/G719A, Ba/F3-EGFR-L858R-L718V, Ba/F3-EGFR-L858R-L718Q, Ba/F3-EGFR-E709K-G719A, and Ba/F3 EGFR-L861Q engineered cells were obtained from Kyinno, and maintained at 37° C. with 5% CO2, in the RPMI1640 media supplemented with 10% fetal bovine serum.
(§3) The cells during the logarithmic growth period were harvested and counted by using blood counting chamber. The cell viability was over 90% which was determined by trypan blue assay. The cell concentration was adjusted with culture medium. 90 μl cell suspensions was added to two 96-well plates to obtain the final cell density of 3000 cells per well. The plates were incubated in humidified incubator at 37° C. with 5% CO2.
(§4) The solution of tested compounds (Furmonertinib mesilate and AZD9291) was diluted 1000-fold with DMSO. Then, said DMSO solution was diluted 100-fold with PBS (Phosphate Buffered Saline) to obtain 10× working solution. And 10× reference control solution was prepared by Phosphate Buffered Saline (PBS). 10 μl working solution (10×) was dispensed to each well (triplicate for each concentration). (The top concentration was 3160 nM, 3.16-fold dilution and 10 different concentrations. The final concentration of DMSO in culture medium was 0.1% [v/v]). The plate was cultured for 3 days.
(§5) On Day 3, CellTiter-Glo® reagent (a luciferase ATP bioluminescence detection reagent) was thawed, and then the cell plate was equilibrated at room temperature for approximately 30 minutes. 100 μl CellTiter-Glo® Reagent which was equal to the volume of cell culture medium present in each well was added. The obtained content was mixed for 5 minutes on an orbital shaker to induce cell lysis. The cell plate was incubated at room temperature for 20 minutes to stabilize luminescent signal. The luminescence was recorded by using Multi-mode Microplate Reader.
(§6) [formula] • blank control: medium control; • vehicle control: culture medium with 0.1% DMSO
(§7) The graphical curves were fitted using a nonlinear regression model with a sigmoidal dose response.

Data set [2] deals with Ba/F3 EGFR-E709H. The data set is described as above. It is filed as cell-based. The settings on record: Mus musculus, BaF3, 72 h, 3 days.
Excerpt: as §1, §2, §3, §4, §5, §6, §7

The subject of data set [3] is Ba/F3 EGFR-E709V. The description is as above. It is filed as cell-based. The following applies: Mus musculus, BaF3, 72 h, 3 days.
Excerpt: as §1, §2, §3, §4, §5, §6, §7

Data set [4] relates to Ba/F3 EGFR-L718Q. The description is as above. The data set is classed as cell-based. The settings on record: Mus musculus, BaF3, 72 h, 3 days.
Excerpt: as §1, §2, §3, §4, §5, §6, §7

For data set [5], the system named is Ba/F3 EGFR-L747S. The description is as above. The data set is classed as cell-based. The following applies: Mus musculus, BaF3, 72 h, 3 days.
Excerpt: as §1, §2, §3, §4, §5, §6, §7

In data set [6] the test system is Ba/F3 EGFR-L747V. Described as above. It is filed as cell-based. The settings on record: Mus musculus, BaF3, 72 h, 3 days.
Excerpt: as §1, §2, §3, §4, §5, §6, §7

The subject of data set [7] is Ba/F3 EGFR-L861Q. The description is as above. It is filed as cell-based. The settings on record: Mus musculus, BaF3, 72 h, 3 days.
Excerpt: as §1, §2, §3, §4, §5, §6, §7

Data set [8] deals with 18 Ba/F3 EGFR mutant cell lines. The data set is described as follows: Anti-proliferation effect on 18 cell lines (overall result in words). The data set is classed as cell-based. The following applies: all 18 Ba/F3 EGFR mutant cell lines of Table 1.
Excerpt: as §1, with “compound. […]” for “compound.”
The cells during the logarithmic growth period were harvested and counted by using blood counting chamber. The cell viability was over 90% which was determined by trypan blue assay. […]
On Day 3, CellTiter-Glo® reagent (a luciferase ATP bioluminescence detection reagent) was thawed, and then the cell plate was equilibrated at room temperature for approximately 30 minutes. […] The luminescence was recorded by using Multi-mode Microplate Reader. […]

Data set [9] concerns Ba/F3 EGFR-G724S. The data set is described as follows: Anti-tumor effect in Ba/F3 EGFR-G724S (KC-1385) cell xenograft model. The following applies: orally, once per day, two weeks. The data set is classed as in vivo, B-NDG mice. From the text:
(§8) This study was used for evaluate the anti-tumor efficacy of furmonertinib mesilate in the female (B-NDG) immune deficiency mice bearing tumors of Ba/F3 EGFR-G724S engineered cells.
(§9) Experimental animals: B-NDG mice, female, 6-8 weeks, and weighing 18-20 g.
(§10) Animal modeling and random grouping: Ba/F3 EGFR-G724S cells were cultivated, cells were collected, and re-suspended and counted in serum-free medium, the re-suspended cells with the addition of a matrigel at 1:1 were subcutaneous inoculated at 1×10^6 cells/0.1 mL in B-NDG mice. When the average tumor volume was about 80-120 mm^3, the animals were randomly grouped into four experiment groups according to the tumor size. Each group contained 12 mice. The grouping day was defined as Day 0, i.e., D0.
The experimental scheme: B-NDG mice were subcutaneously inoculated with Ba/F3 EGFR-G724S cells to establish a cell-line-derived xenograft model. The experiment was divided into 15 mg/kg group of furmonertinib mesilate, 30 mg/kg group of furmonertinib mesilate, 50 mg/kg group of furmonertinib mesilate and vehicle group, wherein each group contained 12 animals, orally administered with the administration volume of 10 uL/g, and the vehicle group was administered with the same amount of vehicle, the administration was carried out once per day and lasted for two weeks. During the whole experiment, the body weight and the tumor sizes of the mice were measured twice each week, and whether or not the presence of toxic reactions was observed.
Tumor Volume (TV) was calculated by: TV=0.5*a*b^2, where a was the long diameter of the tumor and b was the short diameter of the tumor.
The curves for the tumor volume change of four experimental groups were shown in FIG. 1, and the curves for the body weight change of four experimental groups were shown in FIG. 2.

Data set [10] in a line: Body weight and safety in the Ba/F3 EGFR-G724S xenograft model. The data set is classed as in vivo, B-NDG mice. The following applies: 15, 30 and 50 mg/kg, orally, once per day, two weeks.
Excerpt: as §8, §9, §10
The experimental scheme: B-NDG mice were subcutaneously inoculated with Ba/F3 EGFR-G724S cells to establish a cell-line-derived xenograft model. […] During the whole experiment, the body weight and the tumor sizes of the mice were measured twice each week, and whether or not the presence of toxic reactions was observed. […]

In data set [11] the test system is EGFR T790M positive advanced non-small cell lung cancer. The settings on record: oral, 80 mg daily dose; patients progressed after prior systematic anti-tumor therapy; cited from earlier work.

As to `C=CC(=O)Nc1cc(Nc2nccc(-c3cn(C)c4ccccc34)n2)c(OCC(F)(F)F)nc1N(C)CCN(C)C` [Furmonertinib mesilate], the half-maximal inhibitory concentration (IC50) in data set [1] turned out to be 3.84 nM; in data set [2], 31.3 nM; in data set [3], 14.3 nM; in [4], 501 nM; in data set [5] it was 15 nM; in [6], 31.6 nM. In data set [7], this compound gave an IC50 of 3.8 nM. Besides, the anti-proliferation effect result in data set [8] is listed as “good anti-proliferation effect”. Besides, the anti-tumor activity result in data set [9] (15 mg/kg) is “moderate anti-tumor activity”; in data set [9] (30 mg/kg), “extremely significant anti-tumor activity”; in [9] (50 mg/kg), “extremely significant anti-tumor activity”. In addition, the “effect on the body weight of mice” value in data set [10] is “little effect on the body weight of mice”. Further, the safety entry in data set [10] is listed as “good safety”. Besides, the anti-tumor effect result in data set [11] is recorded as “relatively good anti-tumor effect”. In addition, the disease progression result in data set [11] was “can alleviate or stabilize the disease progression”.
